{"source": "patent US9255150B2", "about": "“Remedies for pemphigus containing anti-Fas ligand antibodies” (PINCELL SRL, priority 2008, dated 2016)", "format_in_all_cases": "cell-based, human", "key": {"keratinocytes [1]": {"tested_on": "keratinocytes", "experiment": "Pemphigus sera-induced cell detachment (acantholysis) of keratinocytes", "settings": "pretreatment with Z-IETD-FMK 100 μM for 30 min or NOK2 15 μg/ml, then 72 hrs sera; FIG. 12B"}, "keratinocytes [2]": {"tested_on": "keratinocytes", "experiment": "Pemphigus sera-induced Dsg3 cleavage and caspase-8 activation in confluent keratinocytes, Western blotting", "settings": "pretreatment with Z-IETD-FMK 100 μM for 30 min or NOK2 15 μg/ml, then 72 hrs sera; FIG. 12A", "experimental": "To investigate whether the extrinsic apoptotic pathway is responsible for dsg cleavage, we pretreated confluent keratinocytes with caspase-8 inhibitor Z-IETD-FMK (100 μM for 30 min) or with anti-FasL (NOK2, 15 μg/ml)Ab. Then cells were incubated for 72 hrs with healthy or untreated pemphigus sera. Protein extracts from the culture were analyzed by Western blotting using anti-Dsg3 antibodies and anti-caspase-8 Ab. Vinculin was used as internal control. (FIG. 12A)."}, "keratinocytes [3]": {"tested_on": "keratinocytes", "experiment": "Pemphigus sera-induced keratinocyte apoptosis, TUNEL staining", "settings": "sera pretreated with anti-FasL neutralizing antibody (2.5 mg per ml for 30 min) or Z-IETD-FMK (100 μM for 30 min); FIG. 6", "experimental": "As apoptotic keratinocytes are abundantly expressed in pemphigus, we wanted to explore whether pemphigus sera are capable of inducing apoptosis in normal human keratinocytes. To this purpose, keratinocytes were plated in chamber slides and cultured in serum-free medium (KGM) up to preconfluence. Cells were then cultured in keratinocyte basal medium and treated for 48 h with the addition of 25% serum from either untreated patients or patients treated with systemic corticosteroids. Sera from healthy subjects were used as controls. Apoptosis was evaluated by TUNEL staining in situ. Approximately 100 cells were evaluated, in randomly selected fields, and the percentage of TUNEL-positive cells was counted.\nFasL is one of the major triggers of the caspase-8 activated extrinsic apoptotic pathway. Therefore, we wanted to evaluate whether this pathway plays a role in pemphigus apoptosis. To this purpose, patient sera were pretreated with anti-FasL neutralizing antibody or caspase-8 inhibitor, and added to keratinocyte cultures. Keratinocytes were cultured in KGM and treated with pemphigus sera or with sera from untreated patients. Sera were pretreated with anti-FasL neutralizing antibody (2.5 mg per ml for 30 min) or caspase-8 inhibitor Z-IETD-FMK (100 μM for 30 min). Apoptosis was evaluated by TUNEL staining."}}, "note": "Peptide text beside a SMILES is read from it. * marks the point of attachment. Cbz = O=C(OCc1ccccc1)*; CH2F = FC*", "data": [{"smiles": "CC[C@H](C)[C@H](NC(=O)OCc1ccccc1)C(=O)N[C@@H](CCC(=O)OC)C(=O)N[C@H](C(=O)N[C@@H](CC(=O)OC)C(=O)CF)[C@@H](C)O", "note": "[Z-IETD-FMK] (Cbz-IE(OMe)TD(OMe)-CH2F)", "values": [{"measurement": "cell detachment (i.e. acantholysis) induced by untreated pemphigus sera", "setting": "keratinocytes [1]", "result": "prevented"}, {"measurement": "caspase-8 activation induced by untreated pemphigus sera", "setting": "keratinocytes [2]", "result": "prevents"}, {"measurement": "dsg cleavage (Dsg3) induced by untreated pemphigus sera", "setting": "keratinocytes [2]", "result": "prevents"}, {"measurement": "pemphigus sera-induced keratinocyte apoptosis (TUNEL staining)", "setting": "keratinocytes [3]", "result": "partially prevented"}]}]}
